The text below walks through data of ChEMBL document CHEMBL4419163, “Assays for identifying compounds that modulate bitter taste” (2014).

Common to all, as to format: functional, cell-based
Experiment [1] has as its target T1, Taste receptor type 2 member 8 (Homo sapiens) (UniProt Q9NYW2).
T1 sequence (whole entry): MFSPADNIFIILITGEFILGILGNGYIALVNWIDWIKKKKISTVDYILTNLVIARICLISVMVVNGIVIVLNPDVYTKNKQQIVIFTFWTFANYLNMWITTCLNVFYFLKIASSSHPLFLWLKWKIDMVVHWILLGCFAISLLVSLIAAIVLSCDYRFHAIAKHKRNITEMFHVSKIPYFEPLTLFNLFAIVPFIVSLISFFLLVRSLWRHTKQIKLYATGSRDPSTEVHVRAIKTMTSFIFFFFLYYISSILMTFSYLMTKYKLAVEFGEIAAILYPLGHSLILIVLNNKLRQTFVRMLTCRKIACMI
Briefly: Agonist activity at human TAS2R8 expressed in HEK293T cells co-expressing Galpha15 assessed as increase in intracellular calcium level at 20 mM by Calcium-3 dye based fluorescence assay relative to control.

For experiment [2], the target named is T2, Taste receptor type 2 member 46 (Homo sapiens) (UniProt P59540).
T2 sequence (whole entry): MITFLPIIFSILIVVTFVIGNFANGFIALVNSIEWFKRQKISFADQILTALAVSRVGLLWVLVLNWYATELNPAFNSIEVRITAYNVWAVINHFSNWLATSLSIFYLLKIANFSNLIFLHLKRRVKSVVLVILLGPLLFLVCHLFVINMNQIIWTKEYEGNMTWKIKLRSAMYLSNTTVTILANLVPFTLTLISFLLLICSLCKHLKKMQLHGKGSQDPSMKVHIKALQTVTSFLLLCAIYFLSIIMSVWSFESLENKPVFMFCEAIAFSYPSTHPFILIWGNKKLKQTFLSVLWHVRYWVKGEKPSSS
The experiment is described as follows: Agonist activity at human TAS2R46 expressed in HEK293T cells co-expressing Galpha15 assessed as increase in intracellular calcium level at 20 mM by Calcium-3 dye based fluorescence assay relative to control.

Experiment [3] addresses T3, Taste receptor type 2 member 10 (Homo sapiens) (UniProt Q9NYW0).
T3 sequence (whole entry): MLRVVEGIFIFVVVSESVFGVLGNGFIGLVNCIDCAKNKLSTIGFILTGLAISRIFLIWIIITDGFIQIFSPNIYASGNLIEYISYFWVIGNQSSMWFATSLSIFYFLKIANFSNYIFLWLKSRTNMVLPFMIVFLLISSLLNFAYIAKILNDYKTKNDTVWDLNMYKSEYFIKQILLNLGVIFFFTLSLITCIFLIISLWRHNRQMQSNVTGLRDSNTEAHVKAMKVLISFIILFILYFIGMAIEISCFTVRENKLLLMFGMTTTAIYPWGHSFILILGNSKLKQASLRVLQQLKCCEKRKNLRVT
Briefly: Agonist activity at human TAS2R10 expressed in HEK293T cells co-expressing Galpha15 assessed as increase in intracellular calcium level at 20 mM by Calcium-3 dye based fluorescence assay relative to control. (A change in cytosolic calcium serves as a functional read-out for many receptors and channels.)

The target of experiment [4] is Taste receptor type 2 member 13 (Homo sapiens, UniProt Q9NYV9). The experiment is described as follows: Agonist activity at human TAS2R13 expressed in HEK293T cells co-expressing Galpha15 assessed as increase in intracellular calcium level by Calcium-3 dye based fluorescence assay.
Experiment [5] addresses Taste receptor type 2 member 60 (Homo sapiens, UniProt P59551). Briefly: Agonist activity at human TAS2R60 expressed in HEK293T cells co-expressing Galpha15 assessed as increase in intracellular calcium level by Calcium-3 dye based fluorescence assay.
Experiment [6] addresses Taste receptor type 2 member 31 (Homo sapiens, UniProt P59538). The experiment is described as follows: Agonist activity at human TAS2R44 expressed in HEK293T cells co-expressing Galpha15 assessed as increase in intracellular calcium level by Calcium-3 dye based fluorescence assay.
Experiment [7] addresses Taste receptor type 2 member 9 (Homo sapiens, UniProt Q9NYW1). The experiment is described as follows: Agonist activity at human TAS2R9 expressed in HEK293T cells co-expressing Galpha15 assessed as increase in intracellular calcium level by Calcium-3 dye based fluorescence assay.
In experiment [8] the target is Taste receptor type 2 member 14 (Homo sapiens, UniProt Q9NYV8). The experiment is described as follows: Agonist activity at human TAS2R14 expressed in HEK293T cells co-expressing Galpha15 assessed as increase in intracellular calcium level by Calcium-3 dye based fluorescence assay.
The target of experiment [9] is Taste receptor type 2 member 4 (Homo sapiens, UniProt Q9NYW5). Briefly: Agonist activity at human TAS2R4 expressed in HEK293T cells co-expressing Galpha15 assessed as increase in intracellular calcium level by Calcium-3 dye based fluorescence assay.

SMILES strings stand for the structures.

Sequence of Taste receptor type 2 member 14 (Q9NYV8 whole entry): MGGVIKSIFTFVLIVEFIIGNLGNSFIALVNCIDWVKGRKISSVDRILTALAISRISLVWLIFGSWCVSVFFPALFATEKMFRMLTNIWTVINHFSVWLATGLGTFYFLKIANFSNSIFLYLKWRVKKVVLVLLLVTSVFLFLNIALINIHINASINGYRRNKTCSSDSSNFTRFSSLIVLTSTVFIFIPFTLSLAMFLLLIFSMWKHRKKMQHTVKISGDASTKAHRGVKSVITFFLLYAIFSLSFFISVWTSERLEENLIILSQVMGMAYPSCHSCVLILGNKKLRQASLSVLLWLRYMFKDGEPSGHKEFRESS
Sequence of Taste receptor type 2 member 13 (Q9NYV9 whole entry): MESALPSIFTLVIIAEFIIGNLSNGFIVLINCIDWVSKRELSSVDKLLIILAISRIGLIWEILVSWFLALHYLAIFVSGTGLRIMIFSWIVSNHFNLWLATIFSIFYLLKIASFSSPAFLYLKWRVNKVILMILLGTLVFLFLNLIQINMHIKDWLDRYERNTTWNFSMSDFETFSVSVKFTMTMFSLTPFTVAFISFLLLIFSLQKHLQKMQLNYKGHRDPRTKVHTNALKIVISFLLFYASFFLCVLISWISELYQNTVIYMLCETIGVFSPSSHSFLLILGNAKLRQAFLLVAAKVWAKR
Sequence of Taste receptor type 2 member 60 (P59551 whole entry): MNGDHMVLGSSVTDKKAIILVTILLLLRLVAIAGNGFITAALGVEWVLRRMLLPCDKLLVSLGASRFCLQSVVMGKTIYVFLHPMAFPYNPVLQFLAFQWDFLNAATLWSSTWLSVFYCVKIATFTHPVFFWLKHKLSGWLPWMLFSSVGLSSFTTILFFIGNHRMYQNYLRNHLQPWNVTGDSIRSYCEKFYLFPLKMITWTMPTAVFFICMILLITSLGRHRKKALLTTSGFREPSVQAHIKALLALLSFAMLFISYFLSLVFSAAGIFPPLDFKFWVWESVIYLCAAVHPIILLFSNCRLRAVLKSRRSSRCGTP
Sequence of Taste receptor type 2 member 4 (Q9NYW5 whole entry): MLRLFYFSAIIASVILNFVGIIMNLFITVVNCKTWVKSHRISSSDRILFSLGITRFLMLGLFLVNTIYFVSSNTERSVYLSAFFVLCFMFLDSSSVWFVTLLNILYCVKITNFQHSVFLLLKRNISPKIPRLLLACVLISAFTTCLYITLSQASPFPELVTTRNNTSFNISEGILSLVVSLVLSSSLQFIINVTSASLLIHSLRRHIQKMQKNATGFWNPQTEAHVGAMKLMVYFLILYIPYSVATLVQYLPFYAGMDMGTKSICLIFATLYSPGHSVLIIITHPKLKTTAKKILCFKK
Sequence of Taste receptor type 2 member 31 (P59538 whole entry): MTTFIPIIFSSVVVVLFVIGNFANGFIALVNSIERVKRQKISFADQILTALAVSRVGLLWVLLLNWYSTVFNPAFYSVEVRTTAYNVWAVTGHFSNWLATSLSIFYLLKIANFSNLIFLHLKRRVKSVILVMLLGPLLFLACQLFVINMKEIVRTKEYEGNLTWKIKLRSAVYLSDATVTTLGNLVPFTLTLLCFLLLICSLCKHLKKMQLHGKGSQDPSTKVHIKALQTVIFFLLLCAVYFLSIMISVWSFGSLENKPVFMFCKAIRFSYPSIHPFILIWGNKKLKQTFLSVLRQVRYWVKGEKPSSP
Sequence of Taste receptor type 2 member 9 (Q9NYW1 whole entry): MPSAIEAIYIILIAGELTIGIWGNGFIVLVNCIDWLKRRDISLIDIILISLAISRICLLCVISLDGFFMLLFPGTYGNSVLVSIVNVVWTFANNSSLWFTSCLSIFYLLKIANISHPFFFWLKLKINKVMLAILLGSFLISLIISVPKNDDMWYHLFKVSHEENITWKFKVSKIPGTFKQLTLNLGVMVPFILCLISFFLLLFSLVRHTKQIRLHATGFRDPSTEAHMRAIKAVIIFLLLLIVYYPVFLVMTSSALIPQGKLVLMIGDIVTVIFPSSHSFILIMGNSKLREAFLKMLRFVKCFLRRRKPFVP

As to `CC(O)C(=O)[O-].[K+]` (stereo not given), the results for the Activity in experiment [1], in experiment [2] and in experiment [3] were below 40%, above 40% and below 40%, respectively.
In general, EC50 refers to the concentration at which the effect is half-maximal. Take `[Cl-].[K+]` [POTASSIUM CHLORIDE]: the Activity in [1], in experiment [2] and in experiment [3] was below 40% each time. Also, the 50% effective concentration (EC50) in experiment [4], in [5], in experiment [6], in [7], in experiment [8] and in [9] was 5 to 15 mM in each case.
With `CC1=CC(=O)NS(=O)(=O)O1`, the Activity in [1], in experiment [2] and in experiment [3] was below 40% throughout.
